Reference: patent US20190225643A1, “NOVEL NUCLEOSIDE ANALOGS AND USE THEREOF IN THERAPEUTIC TREATMENT” (CORNELL UNIVERSITY, priority 2016, published 2019)

Assays:
BC3 (PEL) = test: cells; type: cell-based; details: Homo sapiens; 48 hours, CellTiter-Glo; read-out: LC50 BC3 (PEL)
Procedure: (§1) Cell viability assays were performed by plating log-phase cells in RPMI complete media with 20% FBS at 1*10^5 cells/mL, with concentrations of 6-ETI or phospho-6-ETI ranging from 0.1 nM to 100 μM. ATP content at 24, 48 and 72 hours post-treatment was measured by the CellTiter-Glo kit (Promega, Madison, Wis.), or by Trypan blue assay as indicated. The LC50 for 6-ETI in each cell line was determined using online EC50 software at changbioscience.com or using GraphPad Prism to determine the LC50 for 6-ETI, phospho-6-ETI and nucleoside analogs in MM cell lines and primary MM patient samples.

U266 (MM) = test: cells; type: cell-based; details: Homo sapiens, U-266, 48 h, read-out: LC50 U266 (MM) in nM
Procedure: as §1

IBL-1 (EBV+ DLBCL) = test: cells; type: cell-based; details: Homo sapiens, 48 h, read-out: LC50 IBL-1 (DLBCL)
Procedure: as §1

PEL cells (BC3) = test: Viability after zVAD-FMK pan-caspase inhibitor pre-treatment; type: cell-based, human; details: 80 μM zVAD-FMK pre-treatment, 48 hours
Procedure: as §1

[1] = tested on: 6-ETI-resistant BC3 clones and xenograft cell lines 2-3 low and 3-5 low; test: Viability assay in 6-ETI-resistant BC3-derived cell lines; type: cell-based
Procedure: To generate 6-ETI resistant clones, BC3 cells were plated in RPMI-1640 with 50 μg/mL Gentamicin and 20% FBS under 6-ETI selection in multiple 96-well plates at 1*10^5 cells/mL. Selection was begun at 15 nM, 30 nM, or 60 nM 6-ETI. Cells were split every three days, with the dose of 6-ETI doubled at least 1×/week. Selection continued until a few clonal populations remained, after which the clones were expanded into fresh plates under selection with 10 μM 6-ETI. Clones retrieved were designated NSCE-1, NSCE-2, NSCE-3, NSCE-4, NSCE-5, NSCE-6, NSCE-7, NSCE-8, in chronological order of selection from the original plates.
The ascites from these mice were harvested ex vivo, and following Ficoll extraction, placed in culture in RPMI-1640 with 10% FBS.

IBL1 cells = test: Trypan-blue exclusion viability, non-PEL cell line; type: cell-based; details: Homo sapiens; selected non-PEL cell line (IBL1), 48 hours; read-out: LC50 by Trypan-blue exclusion
Procedure: as §1

PEL cells (BC1, BC3) = test: Immunoblotting of PARP cleavage, LC3B cleavage and γH2AX in PEL cells; type: cell-based, human
Procedure: For all intracellular signaling studies, cell lines were plated at 2*10^5 cells/mL or at indicated densities in RPMI-1640 with 20% FBS, and treated with the stated concentrations of 6-ETI, from 6 to 48 hours. Immunoblotting was performed using the following antibodies: PARP (BD Pharmingen, 556494), LC3B (Cell Signaling, 2775S), phospho-l-listone H2AX.X S139 (Cell Signaling, 2577S), GAPDH (Gene Tex, GTX100118), ADK (Santa Cruz, sc-365470) vFLIP 6/14 antibody was a gift from Mary Collins at University College of London, vCyclin (Abcam, ab12208), LANA (Advanced Biotechnologies, 13-210-100), β-Actin (Sigma A5316), p65 (Cell Signaling C22B4, p50 (Cell Signaling 3035), October-1 (Cell Signaling 4428), p-IκBα (Santa Cruz 3-9 sc-8404), IκBα (Santa Cruz C-21 sc-371), pIKKα/β (ser 176)(Santa Cruz sc-21661), IKKα (Santa Cruz H-744 sc-7218).

BC3 cells = test: Trypan-blue exclusion viability, PEL cell line; type: cell-based; details: Homo sapiens, BC-3; selected PEL cell line (BC3), 48 hours; read-out: LC50 by Trypan-blue exclusion
Procedure: as §1

KSHV- cell lines = test: CellTiter-Glo viability assay, KSHV- cell line panel; type: cell-based; details: Homo sapiens, 48 h, read-out: LC50
Procedure: as §1
KSHV+ primary effusion lymphoma (PEL) cell lines (BC1, BC2, BC3, BC5, BCBL1, BCP1), EBV+ lymphoblastoid cell line LCL9001, EBI+ diffuse large B-cell lymphomas (DLBCL) with immunoblastic features (IBL1, IBL4), and EBV+ effusion DLBCL BCKN1 were cultured in RPMI-1640 medium (Invitrogen) supplemented with 50 μg/mL Gentamicin (Sigma-Aldrich) and 10% or 20% heat-inactivated fetal bovine serum, respectively. Uninfected DLBCL cell lines (Ly2, Ly7) were cultured in IMDM (Invitrogen) supplemented with 50 μg/mL Gentamicin and 10% FBS. Multiple myeloma (MM) cell lines U266 and MM1S were cultured in RPMI supplemented with 15%FBS and 50 μg/mL Gentamicin, while JJN3 was cultured in 40% IMDM/40% DMEM plus 20% FBS supplemented with 50 μg/mL Gentamicin. […]

CCSc1ncnc2c1ncn2[C@@H]1O[C@H](CO)C(O)[C@@H]1O (stereo partly drawn) [Compound 6-ETI, 6-ethylthioinosine] gave a CC50 (BC3 (PEL)) of 0.0498 µM, a CC50 (U266 (MM)) of 437 nM and a CC50 (IBL-1 (EBV+ DLBCL)) of over 100 µM. The “caspase dependence of induced cell death” value (PEL cells (BC3)) was “largely caspase-independent”, the CC50 ([1]; Homo sapiens, xenograft cell lines 2-3 low and 3-5 low after selection with 10 μM 6-ETI, read-out: LC50 (the source's name)) was over 100 µM and the “resistance of selected clones” value ([1]; clones NSCE-1, -2, -3, -6, -7, -8) was “fully resistant”. For the same compound, the CC50 (IBL1 cells) was 134 µM, the “DNA damage marker γH2AX” value (PEL cells (BC1, BC3); 1 μM and 10 μM, 24 hours) was “appearance of γH2AX” and the “autophagy (LC3B cleavage product)” value (PEL cells (BC1, BC3); 1 μM, 24 hr) was “some induction of autophagy”. The “apoptosis (PARP cleavage)” value (PEL cells (BC1, BC3); BC1 and BC3, 1 μM, 24 hrs) was “small but observable increases in apoptosis”, the CC50 (BC3 cells) was 0.074 µM and the CC50 (KSHV- cell lines) was 10 to 80 µM.
